On the set-up of the test: species or system BALB/cAnNHsd mice. Particulars: mouse, in vivo, ip.

Consider “insulin: recombinant insulin (Humalog, Eli-Lilly), positive control in glucose tolerance test”, for which the “blood glucose levels compared to the PBS and s-cal14.2b groups 30 min after administration” value is “significantly lower”; the “change of blood glucose levels compared to the PBS control group after five minutes” value is listed as “did not significantly change”.
